Results reported in US7204984B2, “Acetyllysine-recognizing monoclonal antibody and process for producing the same” (Japan Science and Technology Corporation, priority 2001, dated 2007).
Non-standard residues stand in square brackets, D forms with d. Residues, ends and D or L forms follow the SMILES beside them. *: point of attachment. Asu = N[C@@H](CCCCCC(=O)O)C(=O)O; NHOH = ON*

Tested on: histone-deacetylase
Test: Histone acetylation in cells treated with CHAP31 (Western blotting)
Assay type: cell-based
Details: 1 μM, 24 hours, detected with Clone-1 antibody
Experimental: Five types of cells, B16/BL6, MOLT-4F, HeLa-S3, COS-1, and COS-7 were treated with, 1 μM of histone-deacetylase inhibitor, CHAP31, for 24 hours, and then cell lysates were prepared and developed on an electrophoresis, followed by detecting acetylated proteins using the above four antibodies as primary antibodies. In FIGS. 2, A, B, C, and D indicate the results of the detections using Clone-1, Clone-2, Clone-3, and Clone-4, respectively. The concentration of the primary antibodies used for the Western blotting were 107 ng/ml, 65.7 ng/ml, 258 ng/ml, and 158 ng/ml, respectively, and each of these concentration provide the same reactivity (A492=1) in ELISA where acetylated bovine serum albumin was immobilized. The total cell lysates were prepared from the cells (+) after subjecting each cell in the 1 μM CHAP31 treatment for 24 hours or the cells (−) without the treatment. In each lane, 20 μg of protein was loaded. Five types of cells being used were 1: B16/BL6, 2: MOLT-4F, 3: HeLa-S3, 4: COS-1, and 5: COS-7, respectively.

With `CC[C@H](C)[C@@H]1NC(=O)[C@@H](Cc2ccc(OC)cc2)NC(=O)[C@H](CCCCCC(=O)NO)NC(=O)[C@H]2CCCN2C1=O` [CHAP31] (cyclo([Asu](NHOH)[dY](Me)I[dP])) the acetylation of histone was “increased”.
